How the values were obtained:
D(2) dopamine receptor = D(2) dopamine receptor (Rattus norvegicus, UniProt P61169); assay: Inhibition of [3H]spiperone binding to Dopamine receptor D2 from rat striatal membranes; type: cell membranes, Membrane
Rattus norvegicus [1] = assay: Inhibition of 5-HT induced pressor response in pithed rats, after intravenous administration, activity is expressed as ED50; type: functional
Rattus norvegicus [2] = assay: Inhibition of phenylephrine induced pressor response in pithed rats (following i.v. administration of […]); type: functional; details: route intravenous
[3] = molecular target: Sodium-dependent dopamine transporter (Rattus norvegicus, UniProt P23977); assay: In vitro inhibition of [3H]dopamine uptake in rat brain synaptosomes; type: subcellular
Sequence of Sodium-dependent dopamine transporter (P23977 whole entry): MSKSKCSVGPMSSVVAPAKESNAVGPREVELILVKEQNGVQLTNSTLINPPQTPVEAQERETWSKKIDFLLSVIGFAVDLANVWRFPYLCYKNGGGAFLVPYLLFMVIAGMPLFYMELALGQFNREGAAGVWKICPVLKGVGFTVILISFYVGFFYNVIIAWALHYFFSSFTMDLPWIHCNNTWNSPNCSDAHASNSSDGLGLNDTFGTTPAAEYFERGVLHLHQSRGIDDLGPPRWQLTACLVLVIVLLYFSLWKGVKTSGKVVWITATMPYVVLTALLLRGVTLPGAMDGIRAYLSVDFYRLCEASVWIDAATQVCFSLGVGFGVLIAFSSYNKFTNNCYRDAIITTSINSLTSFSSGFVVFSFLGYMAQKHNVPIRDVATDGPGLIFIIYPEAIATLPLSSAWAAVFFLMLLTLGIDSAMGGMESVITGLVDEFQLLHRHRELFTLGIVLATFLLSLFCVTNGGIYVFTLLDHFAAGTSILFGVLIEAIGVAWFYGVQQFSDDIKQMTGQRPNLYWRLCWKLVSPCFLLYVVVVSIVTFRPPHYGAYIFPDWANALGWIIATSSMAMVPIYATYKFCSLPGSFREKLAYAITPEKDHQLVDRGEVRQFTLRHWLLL

Rattus norvegicus [4] = assay: Inhibition of 5-HT induced pressor response in pithed rats, after intravenous administration; type: functional
Rattus norvegicus [5] = assay: Percent reduction of systolic arterial blood pressure(SAP) in spontaneously hypertensive rat after 10 min at intraperitoneal administration of 5 mg/kg; type: functional
[6] = molecular target: Norepinephrine transporter (Rattus norvegicus, UniProt Q9WTR4); assay: In vitro inhibition of [3H]norepinephrine uptake in rat brain synaptosomes; type: subcellular
Sequence of Norepinephrine transporter (Q9WTR4 whole entry): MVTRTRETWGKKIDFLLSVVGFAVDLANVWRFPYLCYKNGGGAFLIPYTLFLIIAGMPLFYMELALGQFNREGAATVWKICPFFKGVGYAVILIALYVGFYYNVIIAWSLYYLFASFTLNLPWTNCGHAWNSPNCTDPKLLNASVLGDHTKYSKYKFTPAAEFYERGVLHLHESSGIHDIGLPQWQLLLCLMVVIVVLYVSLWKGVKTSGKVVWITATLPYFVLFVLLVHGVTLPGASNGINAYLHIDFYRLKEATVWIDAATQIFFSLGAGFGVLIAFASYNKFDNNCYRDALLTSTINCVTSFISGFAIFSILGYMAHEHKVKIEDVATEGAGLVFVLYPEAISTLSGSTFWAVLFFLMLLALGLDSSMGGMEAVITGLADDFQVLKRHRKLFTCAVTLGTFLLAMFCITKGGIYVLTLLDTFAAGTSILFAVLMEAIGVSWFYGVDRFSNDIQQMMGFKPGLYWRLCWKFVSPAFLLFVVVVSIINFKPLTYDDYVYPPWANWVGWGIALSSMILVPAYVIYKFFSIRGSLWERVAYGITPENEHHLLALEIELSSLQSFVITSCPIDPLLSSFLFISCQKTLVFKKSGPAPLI

[7] = molecular target: T1, Adrenergic receptor alpha-1 (Rattus norvegicus, UniProt P15823+P23944+P43140); assay: Inhibition of [3H]prazosin binding to alpha-1 adrenergic receptor from rat cortical membranes; type: cell membranes, Membrane
T1 sequence (P15823 whole entry): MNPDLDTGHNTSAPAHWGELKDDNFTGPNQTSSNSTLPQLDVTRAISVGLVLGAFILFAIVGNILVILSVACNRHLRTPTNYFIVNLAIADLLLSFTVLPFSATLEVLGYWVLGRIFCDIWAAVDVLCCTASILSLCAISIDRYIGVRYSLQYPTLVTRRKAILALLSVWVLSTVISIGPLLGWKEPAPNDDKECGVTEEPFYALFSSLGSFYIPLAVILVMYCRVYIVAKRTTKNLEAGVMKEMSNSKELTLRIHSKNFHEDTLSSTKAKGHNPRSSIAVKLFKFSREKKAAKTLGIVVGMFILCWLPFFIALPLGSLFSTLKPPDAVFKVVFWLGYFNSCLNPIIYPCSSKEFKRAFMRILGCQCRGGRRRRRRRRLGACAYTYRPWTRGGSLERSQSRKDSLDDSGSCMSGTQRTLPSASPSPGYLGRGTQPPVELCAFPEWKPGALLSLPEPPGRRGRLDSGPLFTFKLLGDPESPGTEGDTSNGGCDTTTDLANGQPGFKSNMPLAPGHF
T1 sequence (P23944 whole entry): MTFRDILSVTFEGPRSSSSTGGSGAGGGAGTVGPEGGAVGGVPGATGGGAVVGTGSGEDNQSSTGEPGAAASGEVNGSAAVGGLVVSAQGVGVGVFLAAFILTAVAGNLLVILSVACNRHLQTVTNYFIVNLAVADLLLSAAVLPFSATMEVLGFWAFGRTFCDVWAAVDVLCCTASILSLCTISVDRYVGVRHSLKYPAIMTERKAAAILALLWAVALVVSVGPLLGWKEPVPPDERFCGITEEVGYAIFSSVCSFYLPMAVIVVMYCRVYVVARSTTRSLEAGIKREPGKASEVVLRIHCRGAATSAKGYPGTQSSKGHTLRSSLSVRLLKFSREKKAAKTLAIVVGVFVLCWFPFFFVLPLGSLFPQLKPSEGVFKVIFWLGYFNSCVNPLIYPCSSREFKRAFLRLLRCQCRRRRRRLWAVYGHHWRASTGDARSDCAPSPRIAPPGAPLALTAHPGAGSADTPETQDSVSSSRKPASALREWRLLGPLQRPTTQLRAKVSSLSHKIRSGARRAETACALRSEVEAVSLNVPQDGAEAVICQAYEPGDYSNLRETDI
T1 sequence (P43140 whole entry): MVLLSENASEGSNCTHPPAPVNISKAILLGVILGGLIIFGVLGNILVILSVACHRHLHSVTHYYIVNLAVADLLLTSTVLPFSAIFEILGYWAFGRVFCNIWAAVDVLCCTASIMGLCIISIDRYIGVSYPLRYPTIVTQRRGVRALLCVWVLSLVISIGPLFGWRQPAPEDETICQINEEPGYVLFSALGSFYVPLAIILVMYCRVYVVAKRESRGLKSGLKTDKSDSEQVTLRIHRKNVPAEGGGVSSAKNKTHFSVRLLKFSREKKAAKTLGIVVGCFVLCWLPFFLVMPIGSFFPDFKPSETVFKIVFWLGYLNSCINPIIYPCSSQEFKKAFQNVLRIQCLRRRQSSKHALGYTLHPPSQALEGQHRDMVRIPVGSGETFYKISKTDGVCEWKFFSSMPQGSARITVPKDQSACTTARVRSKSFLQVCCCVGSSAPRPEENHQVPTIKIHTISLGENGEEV

Rattus norvegicus [8] = assay: Inhibition of 5-HT induced pressor response in pithed rats, after intravenous administration of 0.02 mg/kg; type: functional
[9] = molecular target: Sodium-dependent serotonin transporter (Rattus norvegicus, UniProt P31652); assay: In vitro inhibition of [3H]5-HT transporter uptake in rat brain synaptosomes; type: subcellular
Sequence of Sodium-dependent serotonin transporter (P31652 whole entry): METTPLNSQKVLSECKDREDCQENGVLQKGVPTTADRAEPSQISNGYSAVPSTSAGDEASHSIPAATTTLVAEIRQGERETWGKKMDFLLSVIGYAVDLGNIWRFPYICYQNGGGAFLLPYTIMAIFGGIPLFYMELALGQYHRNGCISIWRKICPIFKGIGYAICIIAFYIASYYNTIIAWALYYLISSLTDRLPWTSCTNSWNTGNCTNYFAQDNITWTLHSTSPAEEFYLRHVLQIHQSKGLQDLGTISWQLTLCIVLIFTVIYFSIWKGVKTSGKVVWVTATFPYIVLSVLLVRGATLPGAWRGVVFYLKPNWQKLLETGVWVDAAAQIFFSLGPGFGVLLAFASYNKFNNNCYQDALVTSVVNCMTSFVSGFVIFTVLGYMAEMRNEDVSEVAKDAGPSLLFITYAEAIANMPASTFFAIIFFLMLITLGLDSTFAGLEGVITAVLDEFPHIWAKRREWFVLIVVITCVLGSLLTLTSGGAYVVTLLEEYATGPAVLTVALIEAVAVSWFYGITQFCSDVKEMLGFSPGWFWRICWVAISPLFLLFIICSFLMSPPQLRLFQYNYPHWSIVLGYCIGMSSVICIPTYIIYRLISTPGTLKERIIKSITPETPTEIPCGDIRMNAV

Rattus norvegicus [10] = species on record: Rattus norvegicus; assay: Ratio of phenylephrine ED50/ 5-HT ED50; type: functional
[11] = molecular target: Serotonin 2 (5-HT2) receptor (Rattus norvegicus, UniProt P30994+P08909+P14842); assay: Inhibition of [3H]spiperone binding to 5-hydroxytryptamine 2 receptor from rat cortical membranes; type: cell membranes, Membrane
Rattus norvegicus [12] = assay: Percent reduction of diastolic arterial blood pressure(DAP) in spontaneously hypertensive rat after 10 min at intraperitoneal administration of 5 mg/kg; type: functional
Rattus norvegicus [13] = species on record: Rattus norvegicus; assay: Inhibition of L-5-HTP (L-5-hydroxytryptophan) induced head twitches in rat; type: functional
Mus musculus = species on record: Mus musculus; assay: Inhibition of methyl phenidate induced stereotyped gnawing in mice; type: functional
Rattus norvegicus [14] = assay: Percent reduction of blood pressure in spontaneously hypertensive rat after 10 min at intraperitoneal administration of 5 mg/kg; type: functional

Sequence of D(2) dopamine receptor (P61169 whole entry): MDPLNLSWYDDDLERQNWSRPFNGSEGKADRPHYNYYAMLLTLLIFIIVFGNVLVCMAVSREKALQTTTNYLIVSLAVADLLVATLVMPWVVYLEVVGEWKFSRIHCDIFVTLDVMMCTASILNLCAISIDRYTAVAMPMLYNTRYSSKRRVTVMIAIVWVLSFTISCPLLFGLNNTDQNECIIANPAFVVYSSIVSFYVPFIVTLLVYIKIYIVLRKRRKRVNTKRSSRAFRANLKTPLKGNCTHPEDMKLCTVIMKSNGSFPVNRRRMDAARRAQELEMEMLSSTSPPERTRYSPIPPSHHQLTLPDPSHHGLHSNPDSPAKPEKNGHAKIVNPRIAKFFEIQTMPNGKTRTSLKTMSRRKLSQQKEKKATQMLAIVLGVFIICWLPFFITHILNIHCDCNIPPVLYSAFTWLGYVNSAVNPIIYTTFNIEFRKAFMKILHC

Compound	IC50 (D(2) dopamine receptor) [µM]	ED50 (Rattus norvegicus [1]) [µmol/kg]	Change (Rattus norvegicus [2]) [%]	IC50 [3] [µM]	ED50 (Rattus norvegicus [4]) [µmol/kg]	Reduction (Rattus norvegicus [5]) [%]	IC50 [6] [µM]	IC50 [7] [µM]	Change (Rattus norvegicus [8]) [%]	IC50 [9] [µM]	Ratio (Rattus norvegicus [10])	IC50 [11] [µM]	Reduction (Rattus norvegicus [12]) [%]	ED50 (Rattus norvegicus [13])	ED50 (Mus musculus) [µmol/kg]	other results
Fc1ccc([C@@H]2C[C@@H](N3CCNCC3)c3ccccc32)cc1.O=C(O)/C=C\C(=O)O.O=C(O)/C=C\C(=O)O	0.58	8.3	10	0.28	0.1	-25	0.45	0.037	-40	0.042	83	0.018	-31	1.7 µmol/kg	> 76	–
O.O=C1NCCN1CCN1CCN([C@H]2C[C@H](c3ccc(F)cc3)c3ccccc32)CC1	13	–	53	0.14	2.7	–	0.069	0.54	-11	9.7	–	0.57	–	–	> 97	Reduction (Rattus norvegicus [14]): 3%; ED50 (Rattus norvegicus [13]; Rattus norvegicus, read-out: ED50): > 97 µmol/kg
O=C(O)/C=C\C(=O)O.O=C(O)/C=C\C(=O)O.O=C1NCCN1CCN1CCN([C@H]2C[C@H](c3ccc(F)cc3)c3ccc(F)cc32)CC1	4.5	–	11	0.067	0.93	–	0.017	0.9	2	2.2	–	0.32	–	20 µmol/kg	> 61	Increase (Rattus norvegicus [5]): 6%; Increase (Rattus norvegicus [12]): 4%
O=C1NCCN1CCN1CCN([C@@H]2C[C@@H](c3ccc(F)cc3)c3ccccc32)CC1 (stereo in doubt; (+)2) [IRINDALONE]	–	0.77	–	25	0.0045	–	22	0.026	–	14	171	0.0034	–	0.56 µM/kg	> 72	Change (Rattus norvegicus [2]; […]): -42%; Change (Rattus norvegicus [8]; 0.02 mg/kg): -85%; Reduction (Rattus norvegicus [14]; 5 mg/kg): -48%
O=C(O)/C=C\C(=O)O.O=C(O)/C=C\C(=O)O.O=C1NCCN1CCN1CCN([C@@H]2C[C@@H](c3ccc(F)cc3)c3ccc(F)cc32)CC1	0.046	1.4	–	5.7	0.01	-24	2.5	0.01	–	0.72	140	0.0043	-31	0.096 µmol/kg	–	–
